Assays:
PLK4 (h) = PLK4 (h) (Homo sapiens, UniProt O00444); assay: PLK-4 human kinase assay (SPA); format: biochemical; settings: for IC50: read-out: PLK4 pIC50 (converted)
Method in brief: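 Radiometric readout: 33P-labelled peptide captured on streptavidin SPA beads after EDTA stop, imaged by Leadseeker. Reaction ran 60 min at room temperature in Hepes pH 8.0 buffer. It contained 1 μM ATP with 2 nM [γ-33P]ATP, 10 μM biotinylated peptide and PLK4 (h) at 19 μg/ml.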

AuroraB (h) = AuroraB (h) (Homo sapiens, UniProt Q96GD4); assay: Aurora-B human kinase assay (SPA); format: biochemical; settings: for IC50: read-out: AuroraB pIC50 (converted)
Method in brief: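 Scintillation proximity assay: AuroraB (h) at 0.5 μg/ml with 3 μM biotinylated peptide, 0.5 μM ATP and 2.2 nM [γ-33P]ATP in 60 mM Hepes pH 7.5, 3 mM MgCl2, 3 mM MnCl2, 2 mM DTT. 60 min at room temperature, EDTA stop, streptavidin PVT beads read on Leadseeker.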

GSK3β (h) = GSK3β (h) (Homo sapiens, UniProt P49841); assay: GSK-3β human kinase assay (SPA); format: biochemical; settings: for IC50: read-out: GSK3B pIC50 (converted)
Method in brief: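 Radiometric SPA read-out: after EDTA stop, biotinylated 33P-labelled peptide bound streptavidin PVT beads and was imaged on Leadseeker. Reaction: 60 min, room temperature, GSK3β (h) at 1 μg/ml, 1 μM substrate peptide, 1 μM ATP with 2 nM [γ-33P]ATP, Tris pH 7.4/MgCl2/DTT buffer.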

CDK1/CyclinB (h) = CDK1/CyclinB (h) (Homo sapiens, UniProt P06493); assay: CDK1/CyclinB human kinase assay (FRET); format: biochemical; settings: for IC50: read-out: CDK1 pIC50 (converted)
Method in brief: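 Z'-LYTE FRET format: 0.2 μg/ml enzyme with 2 μM Ser/Thr peptide 12 and 10 μM ATP in 50 mM Hepes pH 7.5, 10 mM MgCl2, 1 mM EGTA, 0.01% Brij-35, 60 min at room temperature. Protease development 60 min; coumarin/fluorescein emission ratio (460/538 nm, excitation 390 nm) reports phosphorylation.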

A2780 = assay: Cellular proliferation assay (Alamar blue), A2780; format: cell-based; settings: A2780 cells, 72 hours with compound, 10% FCS; for IC50: Homo sapiens, A2780, 72 h, read-out: pIC50 A2780 (converted)
Method in brief: (§1)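 Proliferation was assessed over 72 h of compound treatment, following 24 h of seeding without compound, under 10% FCS, 37° C. and 5% CO2. Fluorescent resazurin product was measured and compared with control cells.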

HCT-116 = assay: Cellular proliferation assay (Alamar blue), HCT-116; format: cell-based; settings: HCT-116 cells, 72 hours with compound, 10% FCS; for IC50: Homo sapiens, HCT-116, 72 h, read-out: pIC50 HCT-116 (converted)
Method in brief: as §1

H1299 = assay: Cellular proliferation assay (Alamar blue), H1299; format: cell-based; settings: H1299 cells, 72 hours with compound, 10% FCS; for IC50: Homo sapiens, NCI-H1299, 72 h, read-out: pIC50 H1299 (converted)
Method in brief: as §1

MDA/MB231 = assay: Cellular proliferation assay (Alamar blue), MDA/MB231; format: cell-based; settings: MDA/MB231 cells, 72 hours with compound, 10% FCS; for IC50: Homo sapiens, MDA-MB-231, 72 h, read-out: pIC50 MDA/MB231 (converted)
Protocol: […] functional properties of these compounds was tested in cellular proliferation assays on a panel of different cell lines in the presence of 10% FCS serum (37° C. and 5% (v/v) CO2). In a first step these cells were seeded and incubated for 24 hours in the absence of compound. In the second step the cells were incubated for 72 hours with the compounds to be tested for 72 hours. The viable cell number was finally assessed in a standard Alamar blue cell viability assay.
The viable cell number was assessed by incubation for either 4 h (HCT-116, H1299, H460) 6 h (SKOV3, HT29, U87-MG, Colo205) or 24 h (A2780, PC3, MDA-MB-231, A549, MCF-7) with Alamar blue (Resazurin 9 μg/ml, K-Ferrocyanide 90 μM K-Ferricyanide 90 μM) and the converted fluorescent product was quantified on a fluorescent plate readed (544 nm/590 nm). Effect of the compounds is calculated as of on control cells.

U87MG = assay: Cellular proliferation assay (Alamar blue), U87MG; format: cell-based; settings: U87MG cells, 72 hours with compound, 10% FCS; for IC50: Homo sapiens, U-87 MG, 72 h, read-out: pIC50 U87MG (converted)
Method in brief: as §1

PC-3 = assay: Cellular proliferation assay (Alamar blue), PC-3; format: cell-based; settings: PC-3 cells, 72 hours with compound, 10% FCS; for IC50: Homo sapiens, PC-3, 72 h, read-out: pIC50 PC-3 (converted)
Method in brief: as §1

Sequence of PLK4 (h) (O00444 whole entry): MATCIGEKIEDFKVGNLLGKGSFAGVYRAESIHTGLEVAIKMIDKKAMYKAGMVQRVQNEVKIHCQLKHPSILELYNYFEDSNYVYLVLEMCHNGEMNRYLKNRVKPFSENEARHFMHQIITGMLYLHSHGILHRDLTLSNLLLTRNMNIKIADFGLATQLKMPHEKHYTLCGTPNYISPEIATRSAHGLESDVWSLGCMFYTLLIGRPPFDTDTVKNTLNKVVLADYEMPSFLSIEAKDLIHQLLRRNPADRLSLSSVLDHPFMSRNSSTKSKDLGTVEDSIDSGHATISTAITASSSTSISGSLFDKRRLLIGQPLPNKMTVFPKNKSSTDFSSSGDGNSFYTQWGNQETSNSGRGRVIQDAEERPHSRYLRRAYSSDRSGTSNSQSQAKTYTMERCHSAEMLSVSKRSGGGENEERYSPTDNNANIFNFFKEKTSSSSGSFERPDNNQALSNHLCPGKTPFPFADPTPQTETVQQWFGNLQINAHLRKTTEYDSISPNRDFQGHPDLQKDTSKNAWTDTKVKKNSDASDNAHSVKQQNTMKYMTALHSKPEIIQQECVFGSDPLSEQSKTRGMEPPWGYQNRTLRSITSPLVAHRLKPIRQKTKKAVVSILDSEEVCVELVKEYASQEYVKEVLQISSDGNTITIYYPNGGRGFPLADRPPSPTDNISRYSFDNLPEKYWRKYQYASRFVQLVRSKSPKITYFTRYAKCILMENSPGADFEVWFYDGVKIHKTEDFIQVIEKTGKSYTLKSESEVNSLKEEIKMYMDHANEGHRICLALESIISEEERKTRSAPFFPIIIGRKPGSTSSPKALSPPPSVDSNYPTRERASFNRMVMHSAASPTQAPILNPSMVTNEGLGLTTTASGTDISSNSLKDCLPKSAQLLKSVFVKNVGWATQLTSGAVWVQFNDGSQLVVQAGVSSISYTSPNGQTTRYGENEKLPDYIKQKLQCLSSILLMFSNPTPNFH
Sequence of AuroraB (h) (Q96GD4 whole entry): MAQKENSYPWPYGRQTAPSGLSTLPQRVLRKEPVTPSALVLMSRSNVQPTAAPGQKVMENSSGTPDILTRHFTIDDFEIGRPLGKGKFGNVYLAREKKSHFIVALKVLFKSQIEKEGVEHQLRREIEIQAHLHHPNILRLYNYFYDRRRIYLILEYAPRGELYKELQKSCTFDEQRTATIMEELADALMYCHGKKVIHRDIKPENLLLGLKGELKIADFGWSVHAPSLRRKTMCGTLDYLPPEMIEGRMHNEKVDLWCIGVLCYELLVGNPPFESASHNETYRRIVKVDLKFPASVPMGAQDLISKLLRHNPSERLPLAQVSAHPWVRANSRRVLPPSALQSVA
Sequence of CDK1/CyclinB (h) (P06493 whole entry): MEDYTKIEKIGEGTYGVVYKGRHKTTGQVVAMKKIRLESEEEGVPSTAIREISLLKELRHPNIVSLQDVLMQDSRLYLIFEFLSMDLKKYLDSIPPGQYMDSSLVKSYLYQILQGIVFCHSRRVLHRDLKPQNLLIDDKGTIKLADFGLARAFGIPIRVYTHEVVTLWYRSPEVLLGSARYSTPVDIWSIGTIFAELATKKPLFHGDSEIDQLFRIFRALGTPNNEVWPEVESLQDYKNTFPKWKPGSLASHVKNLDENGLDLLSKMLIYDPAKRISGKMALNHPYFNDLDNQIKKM
Sequence of CDK1/CyclinB (h) (P14635 whole entry partner): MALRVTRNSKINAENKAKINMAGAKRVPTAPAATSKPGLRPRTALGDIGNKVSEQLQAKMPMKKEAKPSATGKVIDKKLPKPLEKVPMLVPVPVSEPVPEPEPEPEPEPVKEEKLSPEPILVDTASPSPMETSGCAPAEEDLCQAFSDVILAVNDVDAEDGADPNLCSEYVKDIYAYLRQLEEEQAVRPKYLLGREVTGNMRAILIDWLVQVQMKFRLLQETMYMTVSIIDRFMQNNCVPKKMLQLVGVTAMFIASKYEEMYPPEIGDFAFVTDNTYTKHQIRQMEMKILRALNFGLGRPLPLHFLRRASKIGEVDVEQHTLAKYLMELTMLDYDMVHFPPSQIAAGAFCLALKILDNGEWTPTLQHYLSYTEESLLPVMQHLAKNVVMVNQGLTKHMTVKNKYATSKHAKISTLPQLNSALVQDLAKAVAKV
Sequence of GSK3β (h) (P49841 whole entry): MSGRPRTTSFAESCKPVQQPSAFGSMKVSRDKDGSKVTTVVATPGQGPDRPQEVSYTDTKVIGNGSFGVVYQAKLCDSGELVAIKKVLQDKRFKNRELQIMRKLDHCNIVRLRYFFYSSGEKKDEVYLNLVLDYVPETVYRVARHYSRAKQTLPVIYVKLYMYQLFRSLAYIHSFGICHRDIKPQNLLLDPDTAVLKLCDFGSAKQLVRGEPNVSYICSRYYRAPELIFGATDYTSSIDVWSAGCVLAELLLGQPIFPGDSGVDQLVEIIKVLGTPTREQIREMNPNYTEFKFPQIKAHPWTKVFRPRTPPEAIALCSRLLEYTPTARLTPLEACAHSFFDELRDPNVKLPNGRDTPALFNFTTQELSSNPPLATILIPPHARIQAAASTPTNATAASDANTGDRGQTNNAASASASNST

| Structure (SMILES) | IC50 (PLK4 (h)) [µM] | IC50 (AuroraB (h)) [µM] | IC50 (GSK3β (h)) [µM] | IC50 (CDK1/CyclinB (h)) [µM] | IC50 (A2780) [µM] | IC50 (HCT-116) [µM] | IC50 (H1299) [µM] | IC50 (U87MG) [µM] | IC50 (PC-3) [µM] | IC50 (MDA/MB231) [µM] | PLK4 pIC50 (PLK4 (h)) | AuroraB pIC50 (AuroraB (h)) | GSK3B pIC50 (GSK3β (h)) | CDK1 pIC50 (CDK1/CyclinB (h)) | pIC50 A2780 (A2780) | pIC50 HCT-116 (HCT-116) | pIC50 H1299 (H1299) | pIC50 MDA/MB231 (MDA/MB231) | pIC50 U87MG (U87MG) | pIC50 PC-3 (PC-3) |
| --- | --- | --- | --- | --- | --- | --- | --- | --- | --- | --- | --- | --- | --- | --- | --- | --- | --- | --- | --- | --- |
| CN1CCCCNc2ncnc3c2/C(=C/Nc2cccc(c2)OCC1=O)C(=O)N3 [Compound 143] | 3.16 | 2.34 | 0.363 | > 10 | > 10 | > 10 | > 10 | > 10 | > 10 | > 10 |  |  |  |  |  |  |  |  |  |  |
| CN1CCNC(=O)CCCCCOc2cc(ccc2Cl)N/C=C2\C(=O)Nc3ncnc1c32 [Compound 52] | 9.55 | 6.61 | 4.47 | > 10 | > 10 | 1.95 | > 10 | 7.24 | > 10 | > 10 |  |  |  |  |  |  |  |  |  |  |
| COc1cc2cc(c1OC)OCCCCC(=O)N(C)CCCNc1ncnc3c1C(=CN2)C(=O)N3 (mixture of isomers) [Compound 134] |  |  |  |  |  |  |  |  |  |  | 6.6 | 6.59 | 5.35 | 5.68 | 5.07 | 5.79 | 5.76 | 5.03 | <5 | 5.44 |
| CN1CCNc2ncnc3c2/C(=C/Nc2cccc(c2)OCC(=O)N(C)CC1)C(=O)N3 [Compound 148] | 1.82 | 4.47 | 1 | > 10 | > 10 | > 10 | > 10 | > 10 | > 10 | > 10 |  |  |  |  |  |  |  |  |  |  |
| CN1CCNC(=O)CCCOc2cc(ccc2Cl)N/C=C2\C(=O)Nc3ncnc1c32 [Compound 55] | > 10 | > 10 | > 10 | > 10 | > 10 | > 10 | > 10 | > 10 | > 10 | > 10 |  |  |  |  |  |  |  |  |  |  |
| CN1CCN(c2ccc3cc2OCCCC(=O)N(C)CCNc2ncnc4c2C(=CN3)C(=O)N4)CC1 (mixture of isomers) [Compound 137] |  |  |  |  |  |  |  |  |  |  | 7.3 | ~5 | 6.405 | 5.83 | 5.61 | 6.04 | 5.73 | 5.31 | 5.94 | <5 |
| CN1CCCCCC(=O)N(C)CCCNc2ncnc3c2C(=CNc2ccc(N4CCOCC4)c(c2)C1)C(=O)N3 (mixture of isomers) [Compound 139] |  |  |  |  |  |  |  |  |  |  | 6.64 | <5 | 5.87 | <5 | 5.08 | 5.51 | <5 | <5 | 5.35 | <5 |
| COc1cc2cc(c1OC)OCC(=O)N(C)CCCCNc1ncnc3c1C(=CN2)C(=O)N3 (mixture of isomers) [Compound 150] |  |  |  |  |  |  |  |  |  |  | <5 | 5.23 | <5 | <5 | <5 | <5 | <5 | <5 | <5 | <5 |
| COc1cc2cc(c1OC)CN(C)CC(=O)N(C)CCCCNc1ncnc3c1/C(=C/N2)C(=O)N3 [Compound 152] | 5.01 | > 10 | > 10 | > 10 | > 10 | > 10 | > 10 | > 10 | > 10 | > 10 |  |  |  |  |  |  |  |  |  |  |
| COc1ccc2cc1OCCCC(=O)N(C(C)C)CCCNc1ncnc3c1C(=CN2)C(=O)N3 (mixture of isomers) [Compound 144] |  |  |  |  |  |  |  |  |  |  | 7.03 | 7.25 | 7.32 | 6.12 | 5.87 | 6.32 | 6.56 | 5.92 | 5.89 | 6.14 |
| COc1ccc2cc1CN(C)CCCCCC(=O)NCCN(C)c1ncnc3c1/C(=C/N2)C(=O)N3 [Compound 48] | > 10 | > 10 | > 10 | > 10 | > 10 | > 10 | > 10 | > 10 | > 10 | > 10 |  |  |  |  |  |  |  |  |  |  |
| CN1CCNC(=O)CCCCCOc2cccc(c2)N/C=C2\C(=O)Nc3ncnc1c32 [Compound 41] | 1.78 | > 10 | 2.45 | 5.01 | > 10 | > 10 | > 10 | > 10 | > 10 | > 10 |  |  |  |  |  |  |  |  |  |  |
| COc1ccc2cc1OCCCCC(=O)NCCN(C)c1ncnc3c1C(=CN2)C(=O)N3 (mixture of isomers) [Compound 44] |  |  |  |  |  |  |  |  |  |  | 5.22 | <5 | 5.31 | <5 | <5 | <5 | <5 | <5 | <5 | <5 |

Further lines, with some results ahead:

| IC50 (PLK4 (h)) [µM] | IC50 (AuroraB (h)) [µM] | IC50 (GSK3β (h)) [µM] | IC50 (CDK1/CyclinB (h)) [µM] | IC50 (A2780) [µM] | IC50 (HCT-116) [µM] | IC50 (H1299) [µM] | IC50 (U87MG) [µM] | IC50 (PC-3) [µM] | Structure (SMILES) | IC50 (MDA/MB231) [µM] | PLK4 pIC50 (PLK4 (h)) | AuroraB pIC50 (AuroraB (h)) | GSK3B pIC50 (GSK3β (h)) | CDK1 pIC50 (CDK1/CyclinB (h)) | pIC50 A2780 (A2780) | pIC50 HCT-116 (HCT-116) | pIC50 H1299 (H1299) | pIC50 MDA/MB231 (MDA/MB231) | pIC50 U87MG (U87MG) | pIC50 PC-3 (PC-3) |
| --- | --- | --- | --- | --- | --- | --- | --- | --- | --- | --- | --- | --- | --- | --- | --- | --- | --- | --- | --- | --- |
| > 10 | > 10 | 9.77 | > 10 | > 10 | > 10 | > 10 | > 10 | > 10 | COc1cc2cc(c1OC)CN(C)CC(=O)N(C)CCCNc1ncnc3c1/C(=C/N2)C(=O)N3 [Compound 125] | > 10 |  |  |  |  |  |  |  |  |  |  |
| 3.72 | 1.26 | 0.282 | 5.62 | > 10 | 3.8 | > 10 | 7.94 | > 10 | CN1CCNc2ncnc3c2/C(=C/Nc2cccc(c2)OCCCCCC1=O)C(=O)N3 [Compound 39] | > 10 |  |  |  |  |  |  |  |  |  |  |
| 2.57 | > 10 | 1.62 | > 10 | > 10 | > 10 | > 10 | > 10 | > 10 | COc1ccc2cc1CN(C)CC(=O)N(C)CCCCNc1ncnc3c1/C(=C/N2)C(=O)N3 [Compound 153] | > 10 |  |  |  |  |  |  |  |  |  |  |
| > 10 | > 10 | > 10 | > 10 | > 10 | > 10 | > 10 | > 10 | > 10 | COc1ccc2cc1CN(C)CCCCC(=O)NCCN(C)c1ncnc3c1/C(=C/N2)C(=O)N3 [Compound 51] | > 10 |  |  |  |  |  |  |  |  |  |  |
| 2.24 | > 10 | 2 | > 10 | > 10 | > 10 | > 10 | > 10 | > 10 | CN1CCNC(=O)CCCCCCOc2cccc(c2)N/C=C2\C(=O)Nc3ncnc1c32 [Compound 36] | > 10 |  |  |  |  |  |  |  |  |  |  |

From US8338422B2, “Indolin-2-ones and aza-indolin-2-ones” (Janssen Pharmaceutica NV, priority 2007, dated 2012)
